According to patent publication US12559464B2, “Quinazolinone dione compounds and uses thereof” (Edgewise Therapeutics, Inc., priority 2023, dated 2026):

Tests used:
[1] = system: myosin ATPase, Rabbit Psoas myofibrils; assay: Myofibril ATPase assay, rabbit psoas (skeletal) myofibrils; type: biochemical; settings: Rabbit Psoas Prep pCa 25 GEOM_MEAN; for Rabbit Psoas EC25 (Y75 value): concentration required to reduce myosin ATP-ase activity by 25%; for Rabbit Psoas Y125 value (marked #): concentration required to increase myosin ATP-ase activity by 25%
Description: [Worded in the source for another species; this species is reported under the same test.] (§1) Myofibril ATPase assays are known in the art to be useful in evaluating small molecules for the treatment of HCM and other cardiac indications. Myosin ATPase activity is assessed by using a coupled reaction system, in which ADP generated by the myosin ATPase function is coupled to the disappearance of NADH through the pyruvate kinase/lactate dehydrogenase (PK-LDH) system. ATPase activity produces ADP, which is used as a substrate for PK to produce pyruvate and regenerate ATP. The pyruvate is then used as a substrate by LDH to oxidize NADH to NAD+. The rate of the reaction is monitored through the time-dependent disappearance of NADH using absorbance at 340 nm, which, when the couple system is in stoichiometric excess, is directly correlated to the ATPase activity of the myosin. Inhibition of ATPase activity by the assayed compounds is indicated by a reduced rate of NADH loss, relative to vehicle-treated controls, over the experimental time window. Porcine Ventricle are the primary sources of myofibril material.
(§2) Materials: The following stock solutions and reagents were used in the Myofibril ATPase Assay: Stock Solutions; PIPES, 200 mM and 120 mM in H2O, pH 7.0; MgCl2 in H2O, 200 mM; PM12 Buffer, 10×: 120 mM PIPES (from 200 mM stock), 20 mM MgCl2 (from 200 mM stock); PBS Buffer, 1X: 135 mM NaCl, […], 10 mM Na(PO4)2, 1.8 mM K2(PO4), pH 7.4; EGTA in H2O, 250 mM; CaCl2) in H2O, 500 mM; DTT in H2O, 1 M; BSA in H2O, 10 mg/mL; ATP in 1×PBS, 50 mM; NADH in 1X PM12 and 1 mM DTT, 26 mM; PEP in 1X PM12, 78 mM, pH 7.0.
(§3) Stock Solutions of pCa buffer. Combine PIPES, CaCl2, and EGTA solutions with water. Adjust pH to 7.0 and bring final volume to 100 mL.
(§4) Buffer A & Buffer B. Prepare buffers A and B according to the table below.
(§5) Myofibril ATPase Assay Procedure: BSA, ATP, NADH, PEP, and DTT solutions were thawed at room temperature, then transferred to ice. Pellet-frozen myofibrils were transferred with approximately twice the required volume into a sufficiently large tube and capped. Myofibrils were thawed by rolling in a water bath for approximately 15 min at room temperature and cooled on ice. Buffers A and B were prepared by adjusting volumes as necessary for required number of wells and stored on ice. 0.5 μL of the compounds to be assayed were added into wells. 25 μL of Buffer A was dispensed into the wells, followed by 25 μL of Buffer B. The wells were measured for absorbance at 340 nm, using a kinetic protocol in which the wells are read every 1.5-2 min for 75 min. Assay data analysis was performed using a python script that filtered the raw data to retain those points falling between a starting and ending time and between a maximum and minimum absorbance, then used the filtered time-domain 340 nm absorbance data in each well to calculate a slope via linear regression analysis in units of mAU/min. Compound slopes were normalized between 100% and 0% activity, where 100% represented the slope of wells containing only compound vehicle, and fit to a 4-parameter logistic model. In addition to the fit parameters, the EC25% values were calculated, relative to the 100% normalized value. Additionally, the Y125 values were calculated for compounds that increased myosin ATP-ase activity. Fit parameters, calculated effective concentrations, filtered raw data, and calculated slopes were exported, in addition to compound-specific graphs of normalized ATPase activity versus concentration in μM. Each value reported in Table 8 is either a Y75 value or a Y125 value. Values without pound sign, #, are Y75 values, which reflect the concentration required to reduce myosin ATP-ase activity by 25% (e.g., Y-axis activity value is 75% of initial value), relative to myosin ATP-ase activity in the absence of exogenous compound. […]

[2] = system: myosin ATPase, Porcine Atria myofibrils; assay: Myofibril ATPase assay, porcine atria myofibrils; type: biochemical; settings: concentration required to reduce myosin ATP-ase activity by 25%; Porcine Atria Prep pCa 25 GEOM_MEAN
[3] = molecular target: T1, myosin ATPase, Porcine Ventricle myofibrils (Sus scrofa, UniProt P79293); assay: Myofibril ATPase assay, porcine ventricle myofibrils; type: biochemical, porcine (Yucatan minipigs); settings: concentration required to reduce myosin ATP-ase activity by 25%; Porcine Ventricle Prep pCa 25 GEOM_MEAN
T1 construct: Myofibrils from porcine cardiac muscle was isolated from the left ventricle of Yucatan minipigs; tissue Exemplar Genetics; host or cells: left ventricle of Yucatan minipigs, myofibrils
Description: as §1, §2, §3, §4, §5

T1 sequence (P79293 whole entry): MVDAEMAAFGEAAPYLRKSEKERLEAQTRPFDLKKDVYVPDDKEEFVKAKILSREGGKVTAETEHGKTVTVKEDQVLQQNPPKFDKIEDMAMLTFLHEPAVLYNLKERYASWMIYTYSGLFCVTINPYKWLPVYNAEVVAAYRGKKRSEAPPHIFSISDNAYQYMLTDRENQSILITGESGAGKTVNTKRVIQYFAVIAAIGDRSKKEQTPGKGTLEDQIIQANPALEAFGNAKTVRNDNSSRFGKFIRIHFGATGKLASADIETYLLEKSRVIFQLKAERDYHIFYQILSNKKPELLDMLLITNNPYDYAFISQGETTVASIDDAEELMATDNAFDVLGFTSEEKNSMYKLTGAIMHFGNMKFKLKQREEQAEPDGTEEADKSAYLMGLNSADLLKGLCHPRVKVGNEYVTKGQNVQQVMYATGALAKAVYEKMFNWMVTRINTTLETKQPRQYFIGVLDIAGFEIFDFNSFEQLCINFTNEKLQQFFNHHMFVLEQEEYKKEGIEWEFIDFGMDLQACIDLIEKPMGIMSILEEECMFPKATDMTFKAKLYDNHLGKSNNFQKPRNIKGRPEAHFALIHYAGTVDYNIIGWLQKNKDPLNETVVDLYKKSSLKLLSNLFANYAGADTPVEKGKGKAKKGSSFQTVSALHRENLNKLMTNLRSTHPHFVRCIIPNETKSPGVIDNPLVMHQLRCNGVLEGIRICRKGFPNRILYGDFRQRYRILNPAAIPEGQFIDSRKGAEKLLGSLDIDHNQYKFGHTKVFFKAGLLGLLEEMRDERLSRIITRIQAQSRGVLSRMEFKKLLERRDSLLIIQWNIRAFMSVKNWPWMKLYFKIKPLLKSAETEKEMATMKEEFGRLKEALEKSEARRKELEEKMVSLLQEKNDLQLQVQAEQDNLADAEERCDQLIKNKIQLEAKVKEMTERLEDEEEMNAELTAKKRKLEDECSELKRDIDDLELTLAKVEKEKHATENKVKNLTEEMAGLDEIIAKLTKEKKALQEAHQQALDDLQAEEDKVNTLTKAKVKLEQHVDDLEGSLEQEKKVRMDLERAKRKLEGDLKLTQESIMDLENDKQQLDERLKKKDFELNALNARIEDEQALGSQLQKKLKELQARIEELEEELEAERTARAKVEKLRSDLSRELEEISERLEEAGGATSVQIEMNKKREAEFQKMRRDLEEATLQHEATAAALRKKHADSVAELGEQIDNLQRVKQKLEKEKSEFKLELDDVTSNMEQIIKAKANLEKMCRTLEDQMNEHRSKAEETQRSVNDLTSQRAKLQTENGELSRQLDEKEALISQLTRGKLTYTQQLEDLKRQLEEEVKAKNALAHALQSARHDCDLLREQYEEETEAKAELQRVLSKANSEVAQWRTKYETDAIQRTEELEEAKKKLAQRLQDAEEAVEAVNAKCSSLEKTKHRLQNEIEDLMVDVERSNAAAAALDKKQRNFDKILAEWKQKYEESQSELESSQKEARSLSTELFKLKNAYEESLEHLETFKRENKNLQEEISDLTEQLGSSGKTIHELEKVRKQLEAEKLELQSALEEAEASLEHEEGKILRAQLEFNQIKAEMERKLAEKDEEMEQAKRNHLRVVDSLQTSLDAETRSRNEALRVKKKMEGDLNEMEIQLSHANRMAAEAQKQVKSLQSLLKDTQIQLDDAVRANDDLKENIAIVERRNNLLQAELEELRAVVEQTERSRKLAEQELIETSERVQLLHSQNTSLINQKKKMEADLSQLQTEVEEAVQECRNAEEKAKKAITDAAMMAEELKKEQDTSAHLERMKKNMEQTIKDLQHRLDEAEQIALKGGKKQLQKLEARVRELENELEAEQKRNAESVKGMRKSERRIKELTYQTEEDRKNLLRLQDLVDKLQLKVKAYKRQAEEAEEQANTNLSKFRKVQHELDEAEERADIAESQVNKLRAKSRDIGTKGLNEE

Compound	Rabbit Psoas EC25 (Y75 value) [1]	Porcine Atria EC25 (Y75 value) [2]	Porcine Ventricle EC25 (Y75 value) [3]	Rabbit Psoas Y125 value (marked #) [1]
C[C@H](NC(=O)Cn1c(=O)[nH]c2ccc(C#N)cc2c1=O)c1ncc(C#N)cc1F (single isomer, unassigned) [Compound 16]	5.743 µM	0.57 µM	14.04 µM	–
C[C@@H](NC(=O)Cn1c(=O)[nH]c2ccc(F)c(F)c2c1=O)c1ccc(C#N)cn1 (single isomer, unassigned) [Compound 17]	9.016 µM	0.427 µM	10.16 µM	–
C[C@H](NC(=O)Cn1c(=O)[nH]c2ccc(F)c(F)c2c1=O)c1ccc(C#N)cn1 (single isomer, unassigned) [Compound 18]	0.512 µM	0.378 µM	5.522 µM	–
Cc1nccc2[nH]c(=O)n(CC(=O)N[C@H](C)c3ncc(C#N)cc3F)c(=O)c12 (single isomer, unassigned) [Compound 19]	21.6 µM	15.77 µM	100 µM	–
C[C@@H](NC(=O)Cn1c(=O)[nH]c2ccc(F)c(F)c2c1=O)c1ncc(C#N)cc1F (single isomer, unassigned) [Compound 21]	1.66 µM	1.799 µM	0.615 µM	–
C[C@H](NC(=O)Cn1c(=O)[nH]c2ccc(F)c(F)c2c1=O)c1ncc(C#N)cc1F (single isomer, unassigned) [Compound 22]	0.036 µM	0.083 µM	0.205 µM	–
CC(C)C[C@@H](C(=O)N[C@@H](C)c1ncc(F)cc1F)n1c(=O)[nH]c2ccccc2c1=O (single isomer, unassigned) [Compound 27]	100 µM	100 µM	100 µM	–
CC(C)C[C@H](C(=O)N[C@@H](C)c1ncc(F)cc1F)n1c(=O)[nH]c2ccccc2c1=O (single isomer, unassigned) [Compound 28]	39.563 µM	59.55 µM	100 µM	–
CC(C)C[C@@H](C(=O)N[C@@H](C)c1ccc(F)cc1F)n1c(=O)[nH]c2ccccc2c1=O (single isomer, unassigned) [Compound 31]	–	56.82 µM	59.48 µM	24.3^# μM
CC(C)C[C@H](C(=O)N[C@@H](C)c1ccc(F)cc1F)n1c(=O)[nH]c2ccccc2c1=O (single isomer, unassigned) [Compound 32]	–	68.73 µM	100 µM	7.64^#^ μM
C[C@H](NC(=O)[C@H](C)n1c(=O)[nH]c2cccc(O)c2c1=O)c1ccc(F)cc1F (single isomer, unassigned) [Compound 35]	0.086 µM	0.0835 µM	1.64 µM	–
C[C@H](NC(=O)[C@@H](C)n1c(=O)[nH]c2cccc(O)c2c1=O)c1ccc(F)cc1F (single isomer, unassigned) [Compound 36]	0.104 µM	0.0803 µM	1.35 µM	–
O=C(Cn1c(=O)[nH]c2ccncc2c1=O)N[C@H]1CCc2cc(F)cc(F)c21 (single isomer, unassigned) [Compound 44]	1.145 µM	36.5 µM	100 µM	–
O=C(Cn1c(=O)[nH]c2ccccc2c1=O)N[C@H]1CCc2cc(F)cc(F)c21 (single isomer, unassigned) [Compound 48]	0.156 µM	0.4184 µM	7.872 µM	–
CC[C@H](NC(=O)Cn1c(=O)[nH]c2ccccc2c1=O)c1ccc(F)cc1F (single isomer, unassigned) [Compound 49]	100 µM	100 µM	100 µM	–
CC(C)[C@H](NC(=O)Cn1c(=O)[nH]c2ccccc2c1=O)c1ccc(F)cc1F (single isomer, unassigned) [Compound 50]	100 µM	100 µM	100 µM	–
O=C(Cn1c(=O)[nH]c2ccccc2c1=O)N[C@H]1CCCc2cc(F)cc(F)c21 (single isomer, unassigned) [Compound 55]	100 µM	100 µM	100 µM	–
O=C(Cn1c(=O)[nH]c2ccccc2c1=O)N[C@@H]1CCCc2cc(F)cc(F)c21 (single isomer, unassigned) [Compound 57]	0.937 µM	1.067 µM	25.71 µM	–
CC(C)C[C@H](NC(=O)Cn1c(=O)[nH]c2ccccc2c1=O)c1ccc(F)cc1F (single isomer, unassigned) [Compound 70]	–	100 µM	100 µM	90.27^# μM
C[C@H](NC(=O)Cn1c(=O)[nH]c2ccccc2c1=O)c1ccc(O)nc1 (single isomer, unassigned) [Compound 98]	100 µM	100 µM	100 µM	–
C[C@H](NC(=O)Cn1c(=O)[nH]c2ccccc2c1=O)c1ccncc1F (single isomer, unassigned) [Compound 99]	100 µM	100 µM	100 µM	–
C[C@@H](NC(=O)Cn1c(=O)[nH]c2ccccc2c1=O)c1ccncc1F (single isomer, unassigned) [Compound 100]	12.272 µM	31.84 µM	100 µM	–
